In a melting point compilation (Tetko et al.; mined from patent text by program, amines drawn as free bases though some values may be those of a salt):

`NC(=O)c1nc(-c2ccccn2)nc2c1[nH]c(=O)n2-c1ccccc1` gave a melting point of 347 to 349 °C. `NS(=O)(=O)C1Cc2ccccc2CC1=O` (stereo unspecified) showed a melting point of 145 to 146 °C. Compound `CCOC(=O)CCCn1cc(C(=O)O)c2nc3c(C)cccc3cc2c1=O` has a melting point of 186 to 188 °C. Compound `CCOC(=O)n1nc2cc(Cl)ccc2c1N` has a melting point of 163 to 165 °C. In the case of `CN1CCN(c2c(F)c(N)c3c(=O)c(C(=O)O)cn(C4CC4)c3c2F)CC1`, the melting point is reported as 247 to 248 °C. With `O=c1[nH]c2cc(Br)cc(Br)c2c(=O)n1Cc1ccccc1Cl` the melting point was 133 to 136 °C. `CCOC(=O)CC(=O)c1ccc(-c2ccc(Cl)cc2)o1` gave a melting point of 46 to 47 °C. With `Cc1nc(-n2cc(-c3ccsc3)nn2)sc1C(=O)NCc1ccccc1` the melting point was 123 to 126 °C. In the case of `O=Cc1cc2n(n1)CCOC2=O`, the melting point is reported as 135 to 136 °C. Work on `CCCN1CCc2[nH]c3ccc4sccc4c3c2C1` yielded a melting point of 143 to 144 °C. Work on `O=C(Oc1cc2ccccc2cn1)c1cc2ccccc2oc1=O` yielded a melting point of 160 to 163 °C. Compound `CCC(=O)N1CCC(NC(=O)Nc2cccc(Cl)c2)CC1` has a melting point of 165 to 166 °C. `O=S(=O)(c1ccc(Cl)cc1)C1(c2cccnc2Cl)CCCCCC1` gave a melting point of 168 to 169 °C. `CN(C)C(=S)SC(C[N+](=O)[O-])c1cccs1` (stereo unspecified) showed a melting point of 88 to 90 °C. `Cc1nc(=O)n(C)cc1Cl` showed a melting point of 132 to 134 °C. Work on `C=CCSc1nc(O)nn1CC` yielded a melting point of 74 to 76 °C. `CN(C)CC(c1ccccc1)c1nnc2n1-c1ccc(Cl)cc1C(c1ccccc1)=NC2` (stereo unspecified) showed a melting point of 168 to 170 °C. `C=CCOc1ccc2c(C)cc(=O)oc2c1C(=O)C=Cc1ccc(Cl)cc1` showed a melting point of 153 to 155 °C. Work on `O=C(O)CCCC(=O)N1CCN(c2cc3c(cc2F)c(=O)c(C(=O)O)c2sccn23)CC1` yielded a melting point of 276 to 278 °C. With `CCOC(=O)NN(C)c1ccc(-c2ccc(F)cc2)nn1` the melting point was 160 to 161 °C. With `O=C(NCCO)c1cccc(-c2ccc3c(c2)N(c2ccc(Cl)cc2Cl)CC3)c1` the melting point was 140 to 141 °C. `CN1c2cscc2CNc2ccccc21` showed a melting point of 125 to 127 °C. Work on `CC1(c2ccccc2)C(=O)Nc2ccc(Cl)cc21` (stereo unspecified) yielded a melting point of 180 to 181 °C. Compound `CCCN(CCC)S(=O)(=O)c1cccc(C(=O)Nc2cccc(Br)c2)c1` has a melting point of 105 to 107 °C. With `O=C(O)c1cnn2c(C(F)(F)F)cc(-c3ccc(C(F)(F)F)cc3)cc12` the melting point was > 250 °C. With `C=CCONC(=O)c1nc(-c2ccc(Cl)c(OC)c2F)cc(N)c1Cl` the melting point was 169 to 172 °C. In the case of `O=S1(=O)NC[C@@H](O)c2cc(Cl)sc21`, the melting point is reported as 126 to 127 °C. `Cc1noc(=O)c2ccc(NC(=O)C(=O)CC3(c4cccc(C(F)(F)F)c4F)CC3)cc12` showed a melting point of 117 to 118 °C. In the case of `CCCn1nc2c(N)nc3ncccc3c2c1CC(C)C`, the melting point is reported as 257 to 260 °C. Compound `Oc1ccc2cc(Br)ccc2c1-c1c(O)ccc2cc(Br)ccc12` has a melting point of 109 to 114 °C. `CC1(O)NC(=O)OC12CCN(Cc1ccccc1)CC2` (stereo unspecified) showed a melting point of 162 to 164 °C. With `COC(C)c1nc2c(N)nc3ccccc3c2n1CC(C)C` (stereo unspecified) the melting point was 185 to 189 °C. Compound `O=C1CCN(Cc2cc([N+](=O)[O-])ccc2O)CC1C(c1ccccc1)c1ccccc1` (stereo unspecified) has a melting point of 177 to 178 °C. `CC(=O)Nc1nc2c(s1)-c1c(c(-c3c[nH]cn3)nn1-c1ccccc1Cl)CC2` showed a melting point of 287 to 288 °C. `CCCC(=O)Nc1ccc2nc(S(N)(=O)=O)sc2c1` showed a melting point of 246 to 247 °C. Compound `COCCc1nc2c(N)nc3cc(OCc4cccc([N+](=O)[O-])c4)ccc3c2n1CC(C)(C)O` has a melting point of 125 to 127 °C. For `COc1c(N2CCC(NC(=O)OCc3ccccc3)C(C)(C)C2)c(F)cc2c(=O)c(C(=O)O)cn(C3CC3)c12` (stereo unspecified), the melting point was 158 to 160 °C. `CN1CCCCC1C(NC(=O)Nc1ccc2[nH]ncc2c1)c1cc(F)cc(Cl)c1` (stereo unspecified) showed a melting point of 192 °C. `CC(C)=C1C(=O)N(c2ccc(N)cc2)C(=O)/C1=C(\C)c1cc(C)oc1C` gave a melting point of 209 to 211 °C. Compound `O=C(c1ccco1)c1cnn2c(-c3ccccc3)ccnc12` has a melting point of 185 to 187 °C. With `CN(C)CCc1c[nH]c2ccc(CC3COC(=O)N3)cc12` (stereo unspecified) the melting point was 138 to 140 °C. `CC(C)C(=O)CCC(=O)c1ccc(F)cc1` showed a melting point of 47 to 49 °C. Compound `O=C(O)c1snc(-c2cccc(Cl)c2)c1C(=O)O` has a melting point of 185 to 186 °C. For `CCOC(=O)Cc1sc(NC(C)=O)nc1-c1ccc(Cl)cc1`, the melting point was 187 to 188 °C. In the case of `CC(C)c1ccc(N(Cc2ccc(N(C)C)nc2)C(=O)C2CCCc3c(O)cccc32)cc1` (stereo unspecified), the melting point is reported as 187 °C. `Cc1cccc(-n2c(-c3sc(Nc4ccc(Cl)cc4)nc3-c3ccccc3)nc3ccccc3c2=O)c1` gave a melting point of 233 to 235 °C. In the case of `Cc1cc2c3c(ccc2cc1C#N)OC(=O)C3(C)C`, the melting point is reported as 215 to 217 °C. For `COc1ccc(C=C2c3ccccc3CCc3ccccc32)cc1N`, the melting point was 62.7 °C. With `C=CCOc1ccc2ccc(NC(=O)c3ccc(OC)cc3)nc2n1` the melting point was 108 °C. Work on `CC1(C(O)(C=Cc2ccc(Cl)cc2Cl)Cn2ccnc2)COCOC1` (stereo unspecified) yielded a melting point of 142 to 144 °C. For `CCn1cc(C(=O)O)c(=O)c2cc(F)c(N3CCNC(c4ccoc4)C3)cc21` (stereo unspecified), the melting point was 202 to 204 °C. For `C#CC(C)(C)OC(=O)Nc1ccc(-c2ncn(-c3ccc(OC(F)(F)F)cc3)n2)cc1`, the melting point was 164 to 165 °C. `Cc1cc2c(cc1C)C(C(F)(F)F)(C(F)(F)F)c1cc3c(cc1O2)Oc1cc(C)c(C)cc1C3(C(F)(F)F)C(F)(F)F` gave a melting point of 242 to 243 °C. `CC(=O)C1CCC2C3CCC4CC(OS(C)(=O)=O)CCC4(C)C3C(OC(=O)CI)CC12C` (stereo unspecified) showed a melting point of 142 to 143 °C. Compound `O=C(NCc1cc(C(F)(F)F)cc(C(F)(F)F)c1)c1c(-c2ccccc2)c2cccnc2c(=O)n1CCCCO` has a melting point of 155 to 157 °C. Work on `Cc1ccc(-n2ccc(=O)c(-c3ccnn3-c3ccccc3)n2)cc1` yielded a melting point of 182 to 183 °C. Work on `CC(C)N(CCN1C(=O)C(=O)c2ccccc21)C(C)C` yielded a melting point of 60 to 61 °C. Work on `CC(C)(C)OC(=O)N1CCN(c2ccc3[nH]cc(Sc4ccccc4)c3c2)CC1` yielded a melting point of 174 °C. `Cc1cc(O)cc(C)c1-c1ccccc1` gave a melting point of 128 to 130 °C. In the case of `COc1ccc(-c2cc(-c3ccccc3)[nH]c2C(=O)Nc2ccc(C(=O)NO)cc2)cc1`, the melting point is reported as 234 to 235 °C. `O=C1Nc2cccc(-c3cccc(C(F)(F)F)c3)c2/C1=C/c1ccc[nH]1` showed a melting point of 197 to 198 °C. In the case of `COC(=O)c1c(C)cccc1[N+](=O)[O-]`, the melting point is reported as 44 to 45 °C. `Cc1ccc(S(=O)(=O)c2ccc3[nH]cc(CCN)c3c2)cc1` gave a melting point of 137 to 140 °C. For `Cc1nc2cccc(Cl)c2c(=O)o1`, the melting point was 149 °C. Compound `CC(=O)N1CCc2c(c(=O)c3cccnc3n2-c2ccccc2)C1` has a melting point of 210 to 212 °C. In the case of `Cc1ccc(-c2ccccc2-c2nnnn2-c2ccc([N+](=O)[O-])cc2)cc1`, the melting point is reported as 164 to 166 °C. For `Cc1cc(CCCCCOc2ccc(C3OC=CO3)cc2)on1`, the melting point was 38 to 39 °C. `CC(C)c1ccc2c(c1)OC(C(F)(F)F)C(C(=O)O)=C2` (stereo unspecified) gave a melting point of 158 to 160 °C. In the case of `CCCc1c(OC(C(=O)OCC)c2ccc(OC)cc2)ccc(C(C)=O)c1O` (stereo unspecified), the melting point is reported as 87 to 89 °C. Work on `COc1ccc(OC)c(C=CC(=O)N(C)O)c1` yielded a melting point of 111 to 112 °C. `O=C(Nc1ccc2ccc(Cl)cc2n1)c1ccccc1` gave a melting point of 133 °C. `CN(C(CCn1c(=O)cc(C(F)(F)F)[nH]c1=O)C(=O)NO)S(=O)(=O)c1ccc(Oc2ccc(F)cc2)cc1` (stereo unspecified) showed a melting point of 163 to 164 °C. `COc1nc2cc(Cl)c(Cl)c(N3NN=CC3CCO)c2nc1OC` (stereo unspecified) gave a melting point of 212 to 214 °C. For `NC(=O)c1ccc(F)c2c1OCC(N(CCCc1c[nH]c3c(F)cc(F)cc13)CC1CC1)C2` (stereo unspecified), the melting point was 124 °C. `Nc1ccc(F)cc1C(=O)c1ccccc1` showed a melting point of 112 to 113 °C. In the case of `OC1CSC(Oc2ccccc2-n2ccc3ccccc32)C(O)C1O` (stereo unspecified), the melting point is reported as 70 to 73 °C. `COc1cc(C(=O)NN2CCN(C3CCCC3)CC2)ccc1Nc1ncc2c(n1)N(C1CCCCC1)CC(F)(F)C(=O)N2C` showed a melting point of 98 to 99 °C. `O=[N+]([O-])c1oc2c(ccc3ccccc32)c1-c1ccc(Br)cc1` showed a melting point of 230 to 233 °C. Compound `OC1(c2ccc(F)cc2)CCC2CN(Cc3ccccc3)CCC2C1` (stereo unspecified) has a melting point of 120 to 122 °C. For `C=CCO/N=C(\C(=O)OC)c1csc(NC(c2ccccc2)(c2ccccc2)c2ccccc2)n1`, the melting point was 115 to 116 °C. Compound `CCCCNC(=O)Nc1c(N)cccc1C(=O)NCC1CCN(C(c2ccccc2)c2ccccc2)CC1` has a melting point of 212 to 213 °C. Compound `CCCc1ccc(NCc2ccc(N(C)C)cc2)cc1` has a melting point of 74 to 76 °C. Work on `CCOC(=O)c1cnc2c(cnn2-c2ccccc2)c1Cl` yielded a melting point of 89 to 91 °C. In the case of `COC(=O)c1cc(-c2nc(COc3ccc(COc4nn(-c5ccccc5)cc4C=O)cc3OC)c(C)o2)ccc1OC`, the melting point is reported as 165 to 166 °C. `CCCCN(CCCC)c1ccc(C(C#N)=c2ccc(=C(C#N)C#N)cc2)c(OC)c1` gave a melting point of 215 to 238 °C. Work on `Cc1oncc1C(=O)N1CCC(C)CC1` yielded a melting point of 44 to 45 °C. Work on `CCCN(CCC)C1Cc2cccc3c2N(C1)C(=O)NC3` (stereo unspecified) yielded a melting point of 116 to 119 °C. Compound `C[C@@H](CC(=O)O)OC(=O)OCc1ccc([N+](=O)[O-])cc1` has a melting point of 78 to 81 °C. `COc1ccc(-c2cnc(N3CCC(O)CC3)nc2)cc1` gave a melting point of 158 to 160 °C. `O=C(O)CCCCCCN(Cc1ccccc1)C(=O)c1cn2c3c(cccc13)CCC2` showed a melting point of 45 to 47 °C. Work on `COc1cc(C=O)c(Br)c(Cl)c1OC` yielded a melting point of 118 to 119 °C. In the case of `CNC=C1C(=S)C(C)(C)OC1(C)C`, the melting point is reported as 115 to 117 °C. Compound `CCOC(=O)N1CCN(c2ccc(-n3cn[nH]c3=O)cn2)CC1` has a melting point of 221 °C. With `CCOc1ccccc1C1=NN(C(=O)c2cccnc2)CC1` the melting point was 155 to 157 °C. Compound `O=C(O)c1ccccc1C(=O)Nc1cccc(-c2ccnc3c(C(=O)c4cccs4)cnn23)c1` has a melting point of 215 to 216 °C. In the case of `Cc1ccncc1-c1cncc(OC2SCC(O)C(O)C2O)c1` (stereo unspecified), the melting point is reported as 201 °C. For `CCOC(=O)C1=CC2(CCC1S(=O)(=O)Nc1ccc(F)cc1Cl)O[C@H]([C@H](O)CO)[C@@H]([C@H](O)CO)O2` (stereo partly specified), the melting point was 55 to 56 °C. Work on `CCOC(=O)Cc1c(C(=O)O)c(CC)c(C(=O)c2ccc(Cl)cc2)n1C` yielded a melting point of 184 to 186 °C. `COc1ccnc(CSc2nc3cc(OC(F)(F)F)ccc3[nH]2)c1` showed a melting point of 134 to 135 °C. Compound `O=C(NCCO)NCCCCC1CCSS1` (stereo unspecified) has a melting point of 50 to 65 °C. For `COc1cc(C(=O)O)ccc1Cn1cc(CCC(=O)N(C)C)c2ccc(CCC(=O)N(C)C)cc21`, the melting point was 216 to 218 °C.
